Test [1] deals with Pseudomonas aeruginosa. Briefly: Antibiofilm activity against Pseudomonas aeruginosa PA14 assessed as inhibition of biofilm formation incubated for 24 hrs by microscopic analysis. It counts as functional, organism-based. The following applies: PA14, 24 h.
The test system of test [2] is Staphylococcus aureus. Nature of the test: Antibiofilm activity against Staphylococcus aureus ATCC 33862 assessed as reduction in biofilm formation at 20 uM incubated for 24 hrs by absorbance based assay relative to control. Type of test: functional. Also noted: scale not given: the % may be the effect or the level left.
For test [3], the system named is Pseudomonas aeruginosa. Nature of the test: Antibiofilm activity against Pseudomonas aeruginosa ATCC 10145 assessed as reduction in biofilm formation at 20 uM incubated for 24 hrs by absorbance based assay relative to control. It counts as functional. Also noted: scale not given: the % may be the effect or the level left.
In test [4] the target is T1, Transcriptional regulator MvfR (Pseudomonas aeruginosa PA14, UniProt A0A072ZLE6).
T1 sequence (A0A072ZLE6 whole entry): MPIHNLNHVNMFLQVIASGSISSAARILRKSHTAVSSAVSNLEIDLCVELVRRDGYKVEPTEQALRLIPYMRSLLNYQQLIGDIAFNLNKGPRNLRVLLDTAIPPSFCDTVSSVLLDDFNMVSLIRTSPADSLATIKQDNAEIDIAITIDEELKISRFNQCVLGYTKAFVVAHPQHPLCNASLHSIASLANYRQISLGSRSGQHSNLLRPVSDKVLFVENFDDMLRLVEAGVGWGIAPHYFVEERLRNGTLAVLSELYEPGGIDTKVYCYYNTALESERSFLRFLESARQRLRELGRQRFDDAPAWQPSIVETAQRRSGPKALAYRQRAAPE
Nature of the test: Antagonist activity at PqsR in wild-type Pseudomonas aeruginosa PAO1-L.

Test [5] concerns the target T1, Transcriptional regulator MvfR. Briefly: Inhibition of PqsR-mediated quorum sensing system in Pseudomonas aeruginosa PAO1 assessed as reduction in pyocyanin production.
Test [6] concerns Staphylococcus aureus. Briefly: Antibiofilm activity against Methicillin-resistant Staphylococcus aureus ATCC BAA-4A assessed as inhibition of biofilm formation. It counts as functional, organism-based.
Test [7] relates to Staphylococcus aureus. Briefly: Antimicrobial activity against Staphylococcus aureus ATCC 25923 assessed as reduction in bacterial growth at 0.5 uM incubated for 16 hrs by broth dilution method relative to control. Type of test: functional. The arrangement: scale not given: the % may be the effect or the level left.
The test system of test [8] is Staphylococcus aureus. Nature of the test: Antimicrobial activity against Staphylococcus aureus ATCC 25923 assessed as reduction in bacterial growth at 0.25 uM incubated for 16 hrs by broth dilution method relative to control. Type of test: functional. Also noted: scale not given: the % may be the effect or the level left. A general note: Broth dilution looks for growth in wells or tubes with falling amounts of substance.

The subject of test [9] is Staphylococcus aureus. Briefly: Antimicrobial activity against Staphylococcus aureus ATCC 25923 assessed as reduction in bacterial growth at 0.12 uM incubated for 16 hrs by broth dilution method relative to control. Type of test: functional. Also noted: scale not given: the % may be the effect or the level left.
Test [10] concerns Staphylococcus aureus. Nature of the test: Antibiofilm activity against methicillin-resistant Staphylococcus aureus assessed as inhibition of biofilm formation incubated for overnight by crystal violet staining based microtiter plate assay. It counts as functional, organism-based.
The subject of test [11] is Pseudomonas aeruginosa. Briefly: Antibiofilm activity against Pseudomonas aeruginosa PAO1 assessed as inhibition of biofilm formation incubated at 15 uM relative to control. The arrangement: scale not given: the % may be the effect or the level left. It counts as functional.
A short description of test [12]: Inhibition of quorum sensing system in Pseudomonas aeruginosa PAO1 assessed as inhibition of pyocyanin production at 256 ug/ml incubated for 24 hrs by absorbance based assay.
In test [13] the test system is Pseudomonas aeruginosa. Briefly: Antibiofilm activity against Pseudomonas aeruginosa PAO1 assessed as inhibition of biofilm formation at 64 microg/ml incubated for 24 hrs by BacTiter Glo reagent based luminescence analysis relative to control. It counts as functional. The arrangement: scale not given: the % may be the effect or the level left. The note with it: dose 64 µg/ml.

Test [14] deals with Enterococcus faecalis. Nature of the test: Antibacterial activity against Enterococcus faecalis ATCC 29212 assessed as bacterial growth inhibition incubated for 15 to 18 hrs by Muller hinton broth based dilution assay. It counts as functional. The following applies: time 15-18 hrs.
Test [15] has as its system Enterococcus faecalis. Briefly: Antibiofilm activity against Enterococcus faecalis ATCC 29212 assessed as biofilm eradication incubated for 20 mins by crystal violet staining based analysis. It counts as functional.
Test [16] deals with Pseudomonas aeruginosa. Briefly: Antibiofilm activity against Pseudomonas aeruginosa PAO1 assessed as inhibition of biofilm formation at 100 uM relative to control. It counts as functional. Also noted: scale not given: the % may be the effect or the level left.
Test [17] deals with Staphylococcus aureus. Briefly: Antibiofilm activity against Staphylococcus aureus ATCC 25923 at 25 ug/ml measured after 24 hrs by crystal violet staining based analysis relative to control. Type of test: functional. The note with it: dose 25 µg/ml.
The test system of test [18] is Klebsiella pneumoniae. Nature of the test: Antibiofilm activity against Klebsiella pneumoniae ATCC 13882 assessed as inhibition of biofilm formation incubated for 24 hrs by crystal violet staining based broth microdilution method. It counts as functional, organism-based. The following applies: ATCC 13882, 24 h.
Test [19] has as its system Staphylococcus aureus. Nature of the test: Antibacterial activity against Staphylococcus aureus ATCC 25923 assessed as reduction in bacterial growth incubated for 18 to 24 hrs by broth microdilution method. It counts as functional. The note with it: time 18-24 hrs.
Test [20] relates to Staphylococcus aureus. Nature of the test: Antibacterial activity against Staphylococcus aureus ATCC 29213 assessed as reduction in bacterial growth incubated for 18 to 24 hrs by broth microdilution method. The note with it: time 18-24 hrs. It counts as functional.
The subject of test [21] is Staphylococcus aureus. Briefly: Antibacterial activity against Staphylococcus aureus ATCC 6538 assessed as reduction in bacterial growth incubated for 18 to 24 hrs by broth microdilution method. The note with it: time 18-24 hrs. It counts as functional.
Test [22] has as its system Staphylococcus epidermidis. Briefly: Antibacterial activity against Staphylococcus epidermidis RP62A assessed as reduction in bacterial growth incubated for 18 to 20 hrs by broth microdilution assay. Type of test: functional. The note with it: time 18-20 hrs.
Test [23] in a line: Inhibition of Staphylococcus aureus sortase A by FRET assay.
Test [24] relates to Pseudomonas aeruginosa. Briefly: Anti-motility activity against Pseudomonas aeruginosa PAO1 assessed as reduction in swarming at 20 uM incubated for 16 hrs by crystal violet staining analysis relative to control. It counts as functional. Also noted: scale not given: the % may be the effect or the level left.
Test [25] concerns Staphylococcus epidermidis. Briefly: Antibiofilm activity against Staphylococcus epidermidis assessed as inhibition of biofilm formation at 40 uM measured after 24 hrs by confocal laser scanning microscopy analysis relative to control. Type of test: functional. Also noted: scale not given: the % may be the effect or the level left.
The nature of test [26]: Inhibition of Quorum sensing system Las in Pseudomonas aeruginosa PAO1 assessed as reduction in interaction with LasR regulator.

In brackets after ≈: the same amount, converted by molar mass.

One may read the IC50 as the concentration needed to halve the response being measured. By inhibition is commonly meant the drop in the measured response relative to a control, in per cent. As usually defined, the MIC is the lowest concentration that inhibits growth of the organism.

Turning to `CCCCCCN(CCCCCC)C(=O)CCCc1c[nH]c(N)n1`, the 50% inhibitory concentration (IC50) in test [1] turned out to be 60 µM. Take `CCCCCCCCCCCC(=O)Nc1c(N)[nH]c2ccccc2c1=O`: the Activity result in test [2] and in test [3] was “>=50%” in each case. In turn, `CCCCCCCCCc1nc2cc(F)ccc2c(=O)n1N` showed an IC50 in test [4] of 1200 nM. As for `Clc1ccc2c(NCCCCCCCCNCc3cc4ccccc4s3)ccnc2c1`, the half-maximal inhibitory concentration (IC50) in test [5] worked out at 30 µM. On to `CCCCCCCCCCCCCCCC(=O)Nc1c(N)[nH]c2ccccc2c1=O`, for which the Activity entry in test [2] and in test [3] was “>=50%” in each case. Consider `CCCCCc1ccc(C(=O)NCCn2cc(CCCCCc3[nH]cnc3-c3cnc4ccccc4c3)nn2)cc1`, for which the concentration for half-maximal inhibition (IC50) in test [6] stood at 3.7 µM. `Cc1ccc(C(=O)c2nn(-c3nc(-c4ccccc4)c(-c4sc(-n5nc(C(=O)c6ccc(C(F)(F)F)cc6)c(C#N)c5N)nc4-c4ccccc4)s3)c(N)c2C#N)cc1`: the values for the Activity in test [7], in [8] and in test [9] were 35%, 20% and 15%, respectively.

In the case of `CCCCOc1ccc(/C=C(\C)Cn2cc(CCCCCc3c[nH]c(N)n3)nn2)cc1`, in test [10], the IC50 is < 10 µM.

Consider `C/C(=C\c1ccc2ccccc2c1)Cn1cc(CCCCCc2c[nH]c(N)n2)nn1`, for which the IC50 in test [10] is < 10 µM. For the compound `CCCCCCCCCCCCCC(=O)Nc1c(N)[nH]c2ccccc2c1=O`, the Activity result in [2] and in [3] was “>=50%” throughout. Turning to `O=C(CSC(=S)N[C@@H]1CCOC1=O)CC(=O)Nc1cccc2ccccc12`, in test [11], the Activity is listed as 35%. On to `O=C(CCCCCOc1cccc(C(F)(F)F)c1)NNC(=O)Cn1c(=O)oc2ccccc21`, for which, in [12] (dose 256.0 µg/ml), the inhibition turned out to be 63%. In addition, in test [13], the Activity turned out to be 45%. Regarding `Clc1ccc(-c2csc(-c3ccc(-c4cnc(-c5ccccc5)s4)cc3)n2)cc1`, the minimum inhibitory concentration (MIC) in test [14] amounted to 0.032 µg/mL (≈ 0.0742 µM). For the same compound, the MBEC in test [15] came to 0.016 µg/mL. As to `COC(=O)c1ccnc(C(F)F)c1`, the IC50 in test [12] amounted to 27 µM. For the same compound, the Activity in test [16] is reported as 85%.

On to `CCCCCCCCCCCC(=O)Nc1cc(=O)c2ccccc2[nH]1`, for which the Activity entry in [2] and in test [3] was “>=50%” throughout. Take `NC(=O)c1cc(-c2csc(-c3ccc(-c4cnc(-c5ccccc5)s4)cc3)n2)ccc1O`: the MIC in [14] turned out to be 0.25 µg/mL (≈ 0.549 µM). Besides, the MBEC in test [15] was 0.008 µg/mL. Consider `Cc1nn(C)c(NC(=O)c2ccc([N+](=O)[O-])cc2)c1[N+]#N`, for which the Activity in test [17] was determined as 96%.

Take `Nc1nccc(-c2cccc(NC(=O)c3cc(Cl)cc(Cl)c3)c2)n1`: the concentration for half-maximal inhibition (IC50) in test [18] turned out to be 26.4 µM. On to `COc1ccc(-c2csc(-c3ccc(-c4cnc(-c5ccccc5)s4)cc3)n2)cc1`, for which the MIC in test [14] worked out at 0.062 µg/mL (≈ 0.145 µM). In [15], the MBEC turned out to be 0.004 µg/mL. Take `CC(=O)/C(=N\Nc1ccc(Cl)c(Cl)c1)C(=O)O`: the MIC in [19], in [20], in [21] and in [22] was > 270 µM each time. The 50% inhibitory concentration (IC50) in test [23] was determined as 50 µM.

Take `CCCCCCCCCCCCCCCC(=O)Nc1cc(=O)c2ccccc2[nH]1`: the Activity entry in test [2] and in test [3] was “>=50%” in each case. Regarding `N#Cc1ccnc(C(F)F)c1`, the IC50 in test [12] was 17 µM. For the same compound, the Activity in test [16] came out at 73%. As to `CCOC(=O)C1S/C(=N\N=C\c2cccc(Cl)c2)N(c2ccc(S(N)(=O)=O)cc2)C1=O` (stereo not given), the Activity in test [24] is listed as 72%; in test [25] it was 80%. For `Cc1ccc(C(=O)c2nn(-c3nc(-c4ccccc4)c(-c4sc(-n5nc(C(=O)c6ccc(C(F)(F)F)cc6)c(C(N)=O)c5N)nc4-c4ccccc4)s3)c(N)c2C(N)=O)cc1`, the Activity in test [7] worked out at 77%; in [8], 50%; in [9], 35%. In the case of `CCCCCCCC(=O)NC1CCCC1`, the concentration for half-maximal inhibition (IC50) in [26] was 250 µM.

For the origin of these results see ChEMBL document CHEMBL5512599, “Synthetic non-toxic anti-biofilm agents as a strategy in combating bacterial resistance” (Eur J Med Chem, 2023).
